The text below walks through data of US11376272B2, “Methods of modulating immune activity” (Flagship Pioneering Innovations V, Inc., priority 2019, dated 2022).

In one assay the test system is IRF. The assay can be described thus: IRF reporter activity in THP1-Dual cells treated with conditioned media and/or compounds (QuantiLuc). It is filed as cell-based, human. On the procedure: (§1) HeLa cervical cancer cells were grown in either DMEM containing 10% FBS (standard culture conditions), or in PBS (nutrient-deprivation) for 48 hours. Conditioned media from each condition was then transferred to THP1-Dual cells in the presence of 300 ng/ml of 2′3′-cGAMP (purchased from Invivogen, cat no. tlrl-nacga23, and resuspended in water). THP1 cells treated with conditioned media were incubated for an additional 24 hours. THP1 supernatants were then assessed for NfkB or IRF reporter activity.
HeLa cells were acquired from the ATCC (catalog no. CCL 2.2) and were cultured in DMEM containing 10% FBS. THP1-Dual cells, which are human monocytes that report on both the NfkB and IRF pathways, were purchased from Invivogen (cat no. thpd-nfis) and were cultured in RPMI containing 10% FBS and 100 μg/ml normocin.
(§2) To generate conditioned media, 3 million HeLa cells were seeded in a 10 cm dish in DMEM containing 10% FBS. Cells were left overnight to adhere and then plates were washed 3× with PBS prior to replacing media with either fresh DMEM containing 10% FBS, or with PBS. Cells were incubated for 48 hours, and then the conditioned media was removed, spun down and sterile filtered.
To measure IRF or NfkB pathway activation, 35,000 THP1-Dual cells/well were seeded in a 96-well plate (100 μl/well). 100 μl of HeLa conditioned media was transferred to each well, plus or minus 2′3′-cGAMP (300 ng/ml final concentration). After a 24 hour incubation period, IRF and NfkB activity were measured. To measure IRF activity, 50 μl of THP1 supernatant was transferred to a 96-well plate, and 50 μl of QuantiLuc reagent was added to each well immediately prior to reading luminescence by a platereader. To measure NfkB activity, 50 μl of THP1 supernatant was transferred to a 96-well plate containing 200 μl of QuantiBlue reagent. The plate was then incubated at room temperature for 2-3 hours prior to reading the absorbance at 655 nm.
THP1-Dual cells (acquired from Invivogen) were seeded at 35,000 cells/well in a 96-well plate (100 μl/well). In a separate treatment plate, a 3-fold dose-response curve of each CDN was prepared, starting at 40 μg/ml, in either plain PBS or in combination with HeLa-PBS conditioned media (conditioned media prepared as previously described). 100 μl of compound treatment was transferred to THP1 cells (1:1 dilution) and cells were incubated for 24 hours. THP1 supernatants were subsequently removed and assayed for IRF activity.
THP1-Dual cells were plated at 35,000 cells/well in 96-well format. To each well, 100 μl of conditioned media was added (in triplicate) in the presence or absence of 2′3′-cGAMP (300 ng/ml). THP1-Dual cells were then incubated for 24 hours with conditioned media prior to assaying IRF induction.
THP1-Dual cells (acquired from Invivogen) were seeded at 35,000 cells/well in a 96-well plate (100 μl/well). In a separate treatment plate, a 3-fold dose-response curve of each purinergic receptor antagonist was prepared, starting at 20 μM, in either 2′3′-cGAMP alone or 2′3′-cGAMP in combination with HeLa-PBS conditioned media (conditioned media prepared as described in examples above). 100 μl from the treatment plate was then transferred to THP1 cells (1:1 dilution), and the cells were incubated for 24 hours. THP1 supernatants were removed and tested for IRF activity.
THP1 cells, acquired from Invivogen, were seeded at 35,000 cells/well in 96-well format, in 100 μl media. In a separate treatment plate, a dose curve of PSB 1114, starting at 20 μM, was prepared in either plain PBS, or in the presence of cGAMP. 100 μl from treatment plate was transferred to THP1 cells (1:1 dilution), and cells were incubated for 24 hours prior to IRF and NfkB read-out.
THP1 cells, acquired from Invivogen, were seeded at 35,000 cells/well in 96-well format, in 100 μl media. In a separate treatment plate, a dose curve of Diquafosol (acquired from MedChemExpress), starting at 100 μM, was prepared in either plain PBS, or in the presence of cGAMP. […]

Assay [1] has as its system IFN-beta. The assay can be described thus: IFN-beta secretion from J774 macrophages (ELISA). It is filed as cell-based, mouse. The conditions noted are these: J774 macrophages exposed to HeLa/PBS conditioned media in combination with 2′3′-cGAMP, 24 hours. On the procedure: (§3) HeLa cervical cancer cells were grown in PBS (nutrient-deprivation) for 48 hours. THP1 cells were then treated with the HeLa-PBS (nutrient deprived) conditioned media in the presence and absence of 2′3′-cGAMP. THP1 supernatants were then assayed for the secretion of IFN-beta, a cytokine regulated by IRF. The same experiment was additionally performed using the mouse macrophage cell line J774 in place of the THP1 cells.
as §2
The same experiment was additionally performed using J774 cells (ATCC, TIB-67). In brief 500,000 cells/well were seeded in a 24-well plate. After cell adherence, media was refreshed, and HeLa conditioned media was added either in the presence or absence of 2′3′-cGAMP (as described above). After 24 hours J774 supernatant was removed an assayed for IFN-beta secretion as described above.
(An ELISA detects its analyte on a solid surface through an enzyme-linked reagent.)

Assay [2] has as its system IFN-beta. Briefly: IFN-beta secretion from THP1 monocytes (ELISA). It is filed as cell-based, human. To be noted: THP1 monocytes exposed to HeLa/PBS conditioned media in combination with 2′3′-cGAMP 300 ng/ml, 24 hours. How it is done: as §3, §2
500,000 THP1-Dual cells/well were seeded in a 24-well plate. 500 μl (1:1 dilution) of each condition was added to the well (PBS; PBS+300 ng/ml cGAMP; HeLa-PBS CM; HeLa-PBS CM+300 ng/ml cGAMP) and incubated for 24 hours. Cell supernatants were then spun down and sterile filtered prior to performing ELISA assay. ELISA assay was performed using the human IFN-beta DuoSet ELISA kit (DY814-05) and following the protocol provided by the manufacturer.

The subject of another assay is NfkB. The assay can be described thus: NfkB reporter activity in THP1-Dual cells (QuantiBlue). The format is cell-based, human. To be noted: 24 hours. How it is done:
as §1
HeLa cells were acquired from the ATCC (catalog no. CCL 2.2) and were cultured in DMEM containing 10% FBS. THP1-Dual cells, which are human monocytes that report on both the NfkB and IRF pathways, were purchased from Invivogen (cat no. thpd-nfis) and were cultured in RPMI containing 10% FBS and 100 μg/ml normocin. […]
To measure IRF or NfkB pathway activation, 35,000 THP1-Dual cells/well were seeded in a 96-well plate (100 μl/well). […] After a 24 hour incubation period, IRF and NfkB activity were measured. To measure IRF activity, 50 μl of THP1 supernatant was transferred to a 96-well plate, and 50 μl of QuantiLuc reagent was added to each well immediately prior to reading luminescence by a platereader. […] The plate was then incubated at room temperature for 2-3 hours prior to reading the absorbance at 655 nm.

A further assay concerns human STING alleles. To be noted: HEK293T cells; Corrales et al., 2015; cited from earlier work.
For a further assay, the system named is B16.F10 melanoma. The conditions noted are these: Corrales et al., 2015; cited from earlier work.
For the next assay, the system named is IFN-β. To be noted: PBMCs isolated from multiple donors with different STING genotypes; Corrales et al., 2015; cited from earlier work.
A further assay concerns CT26 colon carcinoma. To be noted: Corrales et al., 2015; cited from earlier work.
A further assay has as its system 4T1 mammary carcinoma. The conditions noted are these: Corrales et al., 2015; cited from earlier work.
For assay [3], the system named is A20 B-cell lymphoma tumor cells. The assay can be described thus: Survival in mouse model of A20 B-cell lymphoma. The format is in vivo, BALB/c mice. To be noted: combination of 1 μg/kg ADU-S100 and 10 mg/animal diquafosol tetrasodium intratumorally once per day (Group 5), relative to either agent alone (Groups 2, 4). On the procedure:
Test BALB/c mice were injected subcutaneously in the right flank with 1×10^6 A20 B-cell lymphoma tumor cells (in a 0.1 mL cell suspension). Sixteen days after tumor cell implantation, on Day 1 of the study, animals were sorted into ten groups (n=10) with individual tumor volumes between 48 and 100 mm^3 and a group mean tumor volume of 81 mm^3. Five groups of mice were dosed according in the following treatment groups.
Group 1 received Vehicle (PBS) intratumorally once per day. • Group 2 received 1 μg/kg of the STING agonist (ADU-S100) intratumorally once per day. • Group 3 received 50 μg/kg of the STING agonist (ADU-S100) intratumorally once per day. • Group 4 received 10 mg/animal of the purinergic receptor agonist (diquafosol testrasodium) intratumorally once per day. • Group 5 received 1 μg/kg ADU-S100 intratumorally combined with 10 mg/animal of diquafosol testrasodium intratumorally once per day.
ADU-S100 and Diquafosol tetrasodum were dosed intratumorally (itu) in a total volume of 50 μL of therapeutic agents; combination therapies were administered as single injections containing 2×25 μL of 2× dosing solutions.
Tumors were measured using calipers twice per week.

Where [4] appears, read: combination of Diquafosol (dose curve starting at 100 μM) and cGAMP, THP1 cells, 24 hours.
Setting [5] is: combination of PSB 1114 (dose curve starting at 20 μM) and 2′3′-cGAMP, THP1 cells, 24 hours.
Setting [6] is: combination of Diquafosol (dose curve starting at 100 μM) and ADU-S100 (2 μM), THP1 cells, 24 hours.

Regarding `Nc1nc2c(ncn2[C@@H]2O[C@@H]3COP(=O)(O)O[C@H]4[C@@H](O)[C@H](n5cnc6c(N)ncnc65)O[C@@H]4COP(=O)(O)O[C@@H]2[C@@H]3O)c(=O)[nH]1` [2′3′-cGAMP], the IRF signaling entry in the assay with IRF (setting [4]) is “induced IRF signaling”; in the assay with IRF (setting [5]) it was “induced IRF signaling”; with IRF (combination of conditioned media from HeLa cells in DMEM+10% FBS (standard culture) and 2′3′-cGAMP 300 ng/ml, THP1-Dual cells, 24 hours), “only slightly induced”; with IRF (combination of nutrient-starved (PBS, 48 hours) HeLa conditioned media and 2′3′-cGAMP 300 ng/ml, THP1-Dual cells, 24 hours), “increased”; in the assay with IRF (combinations of cGAMP with purinergic receptor agonist nucleotide triphosphates, human monocytes, data not shown), “induced IRF signaling”. Also, the IRF activation entry in the assay on IRF (conditioned media (PBS, 48 hours) of A549, A427, J774, AMJ2C11, PANC1, MLE12, RAW264, Calu-1, MCF7 cells in combination with 2′3′-cGAMP 300 ng/ml, THP1-Dual cells, 24 hours) was “induced IRF activation”. Further, the IFN-beta secretion entry with IFN-beta [1] and with IFN-beta [2] was “increased” each time. The NFKB signaling result in the assay on NfkB (combination of conditioned media from HeLa cells in DMEM+10% FBS (standard culture) and 2′3′-cGAMP 300 ng/ml) is recorded as “only slightly induced”; in the assay with NfkB (combination of nutrient-starved (PBS, 48 hours) HeLa conditioned media and 2′3′-cGAMP 300 ng/ml), “increased”.
On to `Nc1ncnc2c1ncn2[C@@H]1O[C@@H]2COP(=O)([S-])O[C@@H]3[C@H](O)[C@@H](COP([O-])(=S)O[C@H]2[C@H]1O)O[C@H]3n1cnc2c(N)ncnc21.[Na+].[Na+]` (some centres unmarked) [ADU-S100], for which the IRF signaling result in the assay with IRF (combination of ADU-S100 (dose curve starting at 20 μM) and nutrient starved (PBS) HeLa conditioned media, THP1 cells, 24 hours) was “strongly increased IRF signaling”; in the assay on IRF (setting [6]), “synergizes”. In addition, the STING activation result with human STING alleles is reported as “broadly activate all known human STING alleles”. The “antitumor immune response and tumor regression” value is “potent antitumor immune response and significant tumor regression” in the assay with B16.F10 melanoma; “potent antitumor immune response and significant tumor regression” with CT26 colon carcinoma; “potent antitumor immune response and significant tumor regression” with 4T1 mammary carcinoma. Further, the “expression of IFN-β” value in the assay on IFN-β is recorded as “induced dose-dependent expression of IFN-β”. Moreover, the survival result in [3] was “much greater effect on increasing survival”.
For `Cc1ccc2c(c1)C=Cc1cc(C)ccc1C2c1cn(Cc2ccc(C(=O)Nc3nn[nH]n3)o2)c(=O)[nH]c1=S` [AR-C 118925], in the assay on IRF (purinergic receptor antagonist 3-fold dose-response starting at 20 μM, THP1-Dual cells, 24 hours), the “synergistic induction of IRF activity by cGAMP in combination with HeLa-PBS conditioned media” value was “inhibited”.
For the compound `O=c1ccn([C@@H]2O[C@H](COP(=O)(O)OP(=O)(O)OP(=O)(O)OP(=O)(O)OC[C@H]3O[C@@H](n4ccc(=O)[nH]c4=O)[C@H](O)[C@@H]3O)[C@@H](O)[C@H]2O)c(=O)[nH]1` [Diquafosol], the IRF signaling result is reported as “synergizes” in the assay on IRF (setting [6]) and “induced IRF signaling” with IRF (setting [4]). The survival result in assay [3] was “much greater effect on increasing survival”.
In the case of `O=c1[nH]c(=S)ccn1[C@@H]1O[C@H](COP(=O)(O)OP(=O)(O)C(F)(F)P(=O)(O)O)[C@@H](O)[C@H]1O` [PSB 1114], the IRF signaling result in the assay with IRF (setting [5]) is listed as “induced IRF signaling”.
